Experimental data as given in patent publication US20120083522A1, “MODULATION OF INFLAMMATORY RESPONSES BY FACTOR XI” (Isis Pharmaceuitcals, inc., priority 2009, published 2012).
In the oligonucleotide strings, read from the 5' end, every base follows the letter of its sugar. An asterisk marks phosphorothioate; unmarked linkages are phosphodiester. Other units and linkages are bracketed, terminal groups are in braces. A string of capitals states the bases alone. e = 2'-O-(2-methoxyethyl) (MOE); [5mC] = 5-methylcytosine; d = 2'-deoxy (DNA)

Tests used:
Factor XI mRNA [1] = assay: Cynomolgus monkeys, escalating doses: liver Factor XI RNA analysis (Example 29); assay type: in vivo; details: escalating doses 5, 10, 25 mg/kg s.c. over 12 weeks, day 85
Description: Groups, each consisting of two male and three female monkeys, were injected subcutaneously with ISIS 416838, ISIS 416850, ISIS 416858, ISIS 416864, or ISIS 417002 in escalating doses. Antisense oligonucleotide was administered to the monkeys at 5 mg/kg three times per a week for week 1; 5 mg/kg twice per week for weeks 2 and 3; 10 mg/kg three times per week for week 4; 10 mg/kg twice per week for weeks 5 and 6; 25 mg/kg three times per week for week 7; and 25 mg/kg twice per week for weeks 8, 9, 10, 11, and 12. One control group, consisting of two male and three female monkeys, was injected subcutaneously with PBS according to the same dosing regimen. An additional experimental group, consisting of two male and three female monkeys, was injected subcutaneously with ISIS 416850 in a chronic, lower dose regimen. Antisense oligonucleotide was administered to the monkeys at 5 mg/kg three times per week for week 1; 5 mg/kg twice per week for week 2 and 3; 10 mg/kg three times per week for week 4; and 10 mg/kg twice per week for weeks 5 to 12. Body weights were measured weekly. Blood samples were collected 14 days and 5 days before the start of treatment and subsequently once per week for Factor XI protein activity analysis in plasma and measurement of various hematologic factors. On day 85, the monkeys were euthanized by exsanguination while under deep anesthesia, and organs harvested for further analysis.
On day 85, RNA was extracted from liver tissue for real-time PCR analysis of Factor XI using primer probe set LTS00301 (forward primer sequence […], designated herein as SEQ ID NO 271; reverse primer sequence […], designated herein as SEQ ID NO: 272; and probe sequence TGCAGGCACAGCATCCCAGTGTTCTX, wherein X is a fluorphore, designated herein as SEQ ID NO. 273). Results are presented as percent inhibition of Factor XI, relative to PBS control.

Factor XI protein = assay: Cynomolgus monkeys: plasma Factor XI protein ELISA (Example 30); assay type: in vivo; details: for Inhibition of Factor XI protein relative to the PBS control: 25 mg/kg s.c., plasma ELISA
How it was run: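 Monkeys (2 male, 2 female per group) dosed s.c. with antisense oligonucleotide 25 mg/kg three times in week 1, then twice weekly to week 8; PBS control on same schedule. Plasma (1:50) assayed by sandwich ELISA with polyclonal anti-Factor XI capture and peroxidase-conjugated detection, o-phenylenediamine read at 490 nm; expressed as percent reduction versus PBS.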

Factor XI mRNA [2] = assay: Cynomolgus monkeys, 25 mg/kg: liver Factor XI RNA analysis (Example 30); assay type: in vivo; details: for % inhibition of Factor XI mRNA in liver relative to the PBS control: 25 mg/kg s.c., day 55
How it was run: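 Cynomolgus monkeys (2 male, 2 female per group) received antisense oligonucleotide at 25 mg/kg subcutaneously, three times weekly in week 1, then twice weekly in weeks 2–8. Liver Factor XI mRNA was quantified by real-time PCR on day 55 and expressed as percent inhibition relative to a PBS-dosed group.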

human Factor XI mRNA = assay: Dose-dependent inhibition and IC50 in HepG2 cells, electroporation (Example 15); assay type: cell-based
How it was run: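 HepG2 cells were electroporated with antisense oligonucleotide at 123.46, 370.37, 1,111.11, 3,333.33 and 10,000 nM and harvested after about 16 h. Factor XI mRNA was quantified by qRT-PCR (primer probe set RTS 2966), normalized to RIBOGREEN total RNA, and expressed as percent inhibition versus untreated cells.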

Substance | % inhibition of Factor XI mRNA in liver relative to the PBS control (Factor XI mRNA [1]) [%] | Inhibition of Factor XI protein relative to the PBS control (Factor XI protein; Day 10) [%] | Inhibition of Factor XI protein relative to the PBS control (Factor XI protein; Day 17) [%] | Inhibition of Factor XI protein relative to the PBS control (Factor XI protein; Day 24) [%] | Inhibition of Factor XI protein relative to the PBS control (Factor XI protein; Day 31) [%] | Inhibition of Factor XI protein relative to the PBS control (Factor XI protein; Day 38) [%] | Inhibition of Factor XI protein relative to the PBS control (Factor XI protein; Day 45) [%] | Inhibition of Factor XI protein relative to the PBS control (Factor XI protein; Day 52) [%] | Inhibition of Factor XI protein relative to the PBS control (Factor XI protein; Day 55) [%] | Inhibition of Factor XI protein relative to the PBS control (Factor XI protein; Day −5) [%] | Inhibition of Factor XI protein relative to the PBS control (Factor XI protein; Day −14) [%] | % inhibition of Factor XI mRNA in liver relative to the PBS control (Factor XI mRNA [2]) [%] | percent inhibition of Factor XI mRNA (human Factor XI mRNA; electroporation, 123.47 nM) [%] | percent inhibition of Factor XI mRNA (human Factor XI mRNA; electroporation, 370.37 nM) [%] | percent inhibition of Factor XI mRNA (human Factor XI mRNA; electroporation, 1,111.11 nM) [%] | percent inhibition of Factor XI mRNA (human Factor XI mRNA; electroporation, 3,333.33 nM) [%] | percent inhibition of Factor XI mRNA (human Factor XI mRNA; electroporation, 10,000.0 nM) [%] | Factor XI protein levels (in words) (Factor XI protein; cynomolgus monkeys, Example 30) | Factor XI mRNA in liver (in words) (Factor XI mRNA [2]; cynomolgus monkeys, day 55, in comparison to the PBS control)
416838 (antisense GCAACCGGGATGATGAGTGC; 5-10-5 gapmer, wing sugar chemistry not given here, further chemistry not given here) [compound 416838] | 37 |  |  |  |  |  |  |  |  |  |  |  |  |  |  |  |  |  | 
416850 (antisense TGCACAGTTTCTGGCAGGCC; 5-10-5 gapmer, wing sugar chemistry not given here, further chemistry not given here) [compound 416850] | 84 | 20 | 31 | 38 | 52 | 51 | 53 | 53 | 58 | 0 | 0 | 68 | 0 | 12 | 36 | 74 | 73 |  | 
416858 (antisense ACGGCATTGGTGCACAGTTT; 5-10-5 gapmer, wing sugar chemistry not given here, further chemistry not given here) [compound 416858] | 90 | 36 | 49 | 62 | 68 | 74 | 79 | 81 | 81 | 0 | 4 | 89 | 0 | 27 | 36 | 64 | 70 |  | 
416864 (antisense GGCAGCGGACGGCATTGGTG; 5-10-5 gapmer, wing sugar chemistry not given here, further chemistry not given here) [compound 416864] | 44 |  |  |  |  |  |  |  |  |  |  |  |  |  |  |  |  |  | 
417002 (antisense GGTGCACAGTTTCTGGCAGG; 2-13-5 gapmer, wing sugar chemistry not given here, further chemistry not given here) [compound 417002] | 57 |  |  |  |  |  |  |  |  |  |  |  |  |  |  |  |  |  | 
445522 (antisense eG*e[5mC]*eA*e[5mC]*eA*dG*dT*dT*dT*d[5mC]*dT*dG*dG*e[5mC]*eA*eG*eG*e[5mC]) [compound 445522] |  | 36 | 50 | 61 | 70 | 73 | 77 | 80 | 82 | 0 | 2 | 89 | 0 | 0 | 44 | 63 | 74 |  | 
445531 (antisense eG*eG*e[5mC]*eA*eT*dT*dG*dG*dT*dG*d[5mC]*dA*d[5mC]*eA*eG*eT*eT*eT) [compound 445531] |  | 9 | 22 | 23 | 27 | 29 | 32 | 32 | 37 | 1 | 0 | 66 | 8 | 16 | 52 | 61 | 77 |  | 
ISIS 416850: gapmer of Table 8 (antisense eT*eG*e[5mC]*eA*e[5mC]*dA*dG*dT*dT*dT*d[5mC]*dT*dG*dG*d[5mC]*eA*eG*eG*e[5mC]*e[5mC]) |  |  |  |  |  |  |  |  |  |  |  |  |  |  |  |  |  | time-dependent decrease in protein levels | significant reduction of Factor XI mRNA
